Counter-ions that a name gives are not always drawn.
Tested on: MPXV strain hMPXV/USA/MA001/2022 (Lineage B.1, Clade IIb)
Format: cell-based, Mpox virus (MPXV)

Molecule | Duplicate of Duplicate of Hits: No CPE
COC1(c2sc3c(N4CCOCC4)nc(-c4cnc(N)nc4)nc3c2C)COC1 [GNE-317] | 1
C=CC(=O)Nc1cc(Nc2nccc(-c3c4n(c5ccccc35)CCCC4)n2)c(OC)cc1N(C)CCN(C)C [MC-Oritinib, Oritinib] | 1
C=CC(=O)Nc1cc(Nc2nccc(-c3cn(C)c4ccccc34)n2)c(OC)cc1N(C)CCN(C)C.CS(=O)(=O)O [MC-Osimertinib (mesylate), Osimertinib (mesylate)] | 1
COc1cc2ncnc(Nc3cccc(Br)c3)c2cc1OC [MC-PD153035, PD153035] | 1
C=CC(=O)Nc1cc2c(Nc3ccc(F)c(Cl)c3)ncnc2cc1OC [MC-PF-6274484, PF-6274484] | 1
C=CC(=O)N1C[C@H](COc2nc(Nc3cnn(C)c3)nc3[nH]cc(Cl)c23)[C@@H](OC)C1 [MC-PF-06459988, PF-06459988] | 1
O=C(Nc1ccncc1)Nc1ccc(-c2nc(N3CCOCC3)nc(N3C4CCC3COC4)n2)cc1 [MC-PKI-179 (hydrochloride), PKI-179 (hydrochloride)] | 1
O=C1Nc2ccc3ncsc3c2/C1=C/c1cnc[nH]1 [MC-PKR-IN-C16, PKR-IN-C16] | 1
Cc1ccc(C(=O)Nc2ccc(CN3CCN(C)CC3)c(C(F)(F)F)c2)cc1C#Cc1cnc2cccnn12.Cl [MC-Ponatinib (hydrochloride), Ponatinib (hydrochloride)] | 1
C=CC(=O)Nc1cccc(Oc2nc(Nc3ccc(N4CCN(C)CC4)cc3)nc3ccoc23)c1 [MC-Poseltinib, Poseltinib] | 1
N[C@H]1CC[C@H](Nc2nc(Nc3ccc(C(=O)N4CCCCC4)cc3)c3ncn(-c4cccc(F)c4)c3n2)CC1 [MC-Purfalcamine, Purfalcamine] | 1
O=C(NOCCO)c1cc(CN2OCCCC2=O)c(F)c(F)c1Nc1ccc(I)cc1F [MC-RO4987655, RO4987655] | 1
C=CC(=O)Nc1cc(Nc2nccc(-c3cn(C)c4ccccc34)n2)c(OC)cc1OCCN(C)C [MC-Rezivertinib, Rezivertinib] | 1
O=C(Nc1ccc2[nH]nc(-c3ccncc3)c2c1)[C@@H]1CCN(CC(=O)N2CCN(c3ccc(-c4ncccn4)cc3)CC2)C1 [MC-SCH772984, SCH772984] | 1
O=C(N/N=C/c1c(O)ccc2ccccc12)c1cc(-c2ccc3ccccc3c2)n[nH]1 [MC-SKI-I, SKI-I] | 1
CCN(CC)CCNC(=O)c1c(C)[nH]c(/C=C2\C(=O)Nc3ccc(Cl)cc32)c1C [MC-SU11652, SU11652] | 1
COc1cc2ncnc(Nc3ccc(F)c(Cl)c3)c2cc1OCCN1CC2(CC2)C2(C1)OCCO2 [MC-Simotinib, Simotinib] | 1
C=CC(=O)Nc1cc(Nc2nccc(Nc3cc(Cl)c(F)cc3C(C)(C)O)n2)c(OC)cc1N1CC[C@@H](N(C)C)C1 [MC-Sunvozertinib, Sunvozertinib] | 1
CN(C)C/C=C/C(=O)Nc1cc2c(Nc3ccc(Cl)c(Br)c3)ncnc2cn1 [MC-Tarlox-TKI, Tarlox-TKI] | 1
Cn1nccc1Nc1nccc(-c2cc3c(s2)C(C)(C)N(CCN2CCOCC2)C3=O)n1 [MC-Temuterkib, Temuterkib] | 1
COc1cc2c(Nc3ccc(Cl)c(Cl)c3F)ncnc2cc1OC[C@@H]1C[C@@H]2CN(C)C[C@@H]2C1 [MC-Tesevatinib, Tesevatinib] | 1

Molecule | Duplicate of Duplicate of Hits: No CPE
C#Cc1cccc(Nc2ncnc3cc(OC)c(NC(=O)N4C[C@H]5CCN(C)[C@H]5C4)cc23)c1 [MC-Theliatinib, Theliatinib] | 1
C=CC(=O)N1CCC[C@@H](n2c(=O)n(-c3ccc(Oc4ccccc4)cc3)c3c(N)nccc32)C1 [MC-Tolebrutinib, Tolebrutinib] | 1
CC(=O)Nc1cccc(-n2c(=O)n(C3CC3)c(=O)c3c(Nc4ccc(I)cc4F)n(C)c(=O)c(C)c32)c1.C[S+](C)[O-] [MC-Trametinib (DMSO solvate), Trametinib (DMSO solvate)] | 1
C=CC(=O)Nc1cc2c(Nc3ccc(OCc4ccccn4)c(Cl)c3)ncnc2cc1OCCN1CCOCC1 [MC-Tuxobertinib, Tuxobertinib] | 1
CCN1CCC(Nc2ccc3c(c2)/C(=C(\c2cccc(F)c2)c2ncc(C)[nH]2)C(=O)N3)CC1 [MC-Tyrosine kinase-IN-1, Tyrosine kinase-IN-1] | 1
COc1ccc(N(C(=O)Oc2cc(C(=O)Nc3cccc(C(F)(F)F)c3)ccc2C)c2ccnc(Nc3ccc(N4CCN(C)CC4)cc3)n2)c(OC)c1 [MC-WH-4-025, WH-4-025] | 1
C=CC(=O)N[C@H]1C=C(C)c2c(-c3cnc4ccccc4c3)c3c(N)ncnc3n2C1 [MC-Zipalertinib, Zipalertinib] | 1
CCN1CCN(Cc2ccc(-c3cc4c(N[C@H](C)c5ccccc5)ncnc4[nH]3)cc2)CC1 [NKIL-AEE788 (NVP-AEE788), AEE788] | 1
C=CC(=O)Nc1ccc2ncnc(Nc3ccc(OCc4cccc(F)c4)c(Cl)c3)c2c1.Cc1ccc(S(=O)(=O)O)cc1 [NKIL-AST-1306, Allitinib tosylate] | 1
Cc1cc(C(=O)NOCCO)c(Nc2ccc(I)cc2F)n(C)c1=O [NKIL-AZD8330, AZD8330] | 1
CNC(=O)CN1CCC(Oc2cc3c(Nc4cccc(Cl)c4F)ncnc3cc2OC)CC1 [NKIL-AZD8931 (Sapitinib), Sapitinib] | 1
C=CC(=O)Nc1cc(Nc2nccc(-c3cn(C)c4ccccc34)n2)c(OC)cc1N(C)CCN(C)C [NKIL-AZD9291, Osimertinib] | 1
CN(C)C/C=C/C(=O)Nc1cc2c(Nc3ccc(F)c(Cl)c3)ncnc2cc1O[C@H]1CCOC1 [NKIL-Afatinib (BIBW2992), Afatinib] | 1
C=CC(=O)Nc1cccc(Nc2nc(Nc3ccc(NC4CN(CCF)C4)cc3OC)ncc2C(F)(F)F)c1 [NKIL-CNX-2006, CNX-2006] | 1
O=C(c1ccc(F)c(F)c1Nc1ccc(I)cc1F)N1CC(O)([C@@H]2CCCCN2)C1 [NKIL-Cobimetinib (GDC-0973, RG7420), Cobimetinib] | 1
COc1cc2ncnc(Nc3ccc(F)c(Cl)c3)c2cc1NC(=O)/C=C/CN1CCCCC1 [NKIL-Dacomitinib (PF299804, PF299), Dacomitinib] | 1
Cc1c(CN2CCN(C(=O)[C@H](C)O)CC2)sc2c(N3CCOCC3)nc(-c3cnc(N)nc3)nc12 [NKIL-GDC-0980 (RG7422), Apitolisib] | 1
C=CC(=O)Nc1ccc2ncnc(Nc3cccc(Br)c3)c2c1 [NKIL-PD168393, PD168393] | 1
O=C(NOCC(O)CO)c1cc(Br)c(F)c(F)c1Nc1ccc(I)cc1F (centres unmarked) [NKIL-PD318088, PD318088] | 1
COc1ccc(-c2cc3c(C)nc(N)nc3n([C@H]3CC[C@H](OCCO)CC3)c2=O)cn1 [NKIL-PF-04691502, PF-04691502] | 1
O=C(NC[C@H](O)CO)c1ccncc1Nc1ccc(I)cc1F [NKIL-Pimasertib (AS-703026), Pimasertib] | 1

Molecule | Duplicate of Duplicate of Hits: No CPE
COc1cc(F)c(F)c(Nc2ccc(I)cc2F)c1NS(=O)(=O)C1(C[C@H](O)CO)CC1 [NKIL-Refametinib (RDEA119, Bay 86-9766), Refametinib] | 1
Cc1c[nH]c2nc(Nc3ccc(N4CCN(C)CC4)c(F)c3)nc(-c3cccc(CC#N)c3)c12 [NKIL-SGI-7079, SGI-7079] | 1
Cn1c(=O)c(F)c(Nc2ccc(I)cc2F)c2c(=O)n(C[C@@H](O)CO)cnc21 [NKIL-TAK-733, TAK-733] | 1
Nc1ccc(-c2ccc3ncc4ccc(=O)n(-c5cccc(C(F)(F)F)c5)c4c3c2)cn1 [NKIL-Torin 2, Torin 2] | 1
Cc1nc2c(-c3cnc(N)nc3)nc(N3CCOCC3)nc2n1C(C)C [NKIL-VS-5584 (SB2343), VS-5584] | 1
Cc1cnc(Nc2ccc(F)cc2Cl)nc1-c1c[nH]c(C(=O)N[C@H](CO)c2cccc(Cl)c2)c1 [NKIL-VX-11e, VX-11e] | 1
COc1cc2ncnc(Nc3ccc(O)c(Br)c3)c2cc1OC [NKIL-WHI-P154, WHI-P154] | 1
C=CC(=O)Nc1cccc(Oc2nc(Nc3ccc(N4CCN(C)CC4)cc3)ncc2Cl)c1 [NKIL-WZ3146, WZ3146] | 1
C=CC(=O)Nc1cccc(Oc2nc(Nc3ccc(N4CCN(C)CC4)cc3OC)ncc2Cl)c1 [NKIL-WZ4002, WZ4002] | 1
C=CC(=O)Nc1cccc(Sc2nc(Nc3ccc(N4CCN(C)CC4)cc3)ncc2Cl)c1 [NKIL-WZ8040, WZ8040] | 1
(S)-Sunvozertinib [MC-(S)-Sunvozertinib] | 1
Afatinib impurity 11 [MC-Afatinib impurity 11] | 1
FGFR1/DDR2 inhibitor 1 [MC-FGFR1/DDR2 inhibitor 1] | 1
Gilmelisib [MC-Gilmelisib] | 1
JAK-IN-23 [MC-JAK-IN-23] | 1
JNK-IN-7 [MC-JNK-IN-7] | 1
KIRA-7 [MC-KIRA-7] | 1
Mutant EGFR inhibitor [MC-Mutant EGFR inhibitor] | 1
SBI-581 [MC-SBI-581] | 1
XMU-MP-3 [MC-XMU-MP-3] | 1
ZX-29 [MC-ZX-29] | 1

Tested on: VK2/E6E7 cells

Molecule | CC50 [nM] | concentration at which toxicity was shown [nM]
COC1(c2sc3c(N4CCOCC4)nc(-c4cnc(N)nc4)nc3c2C)COC1 [GNE-317] | 201 | 80 to 100

Reference: publication doi:10.1101/2025.05.02.651913 (bioRxiv, 2025)
